Assay results as given in ChEMBL document CHEMBL3885881, “DrugMatrix”.

Organism: Rattus norvegicus
Test: DrugMatrix - Regimen: Daily Repeat
Format: toxicity, organism-based, Sprague-Dawley
Set-up: regimen Daily Repeat, gender Male, age 6-8 weeks
Details: in vivo, po, route oral GAVAGE, vehicle 100 % WATER; for ABSOLUTE BASOPHIL / ABSOLUTE EOSINOPHIL / ABSOLUTE LYMPHOCYTE / ABSOLUTE MONOCYTE / ABSOLUTE SEGMENTED NEUTROPHIL / BASOPHIL / EOSINOPHIL / ERYTHROCYTE COUNT / HEMATOCRIT / HEMOGLOBIN / LEUKOCYTE COUNT / LYMPHOCYTE / MEAN CORPUSCULAR HEMOGLOBIN / MEAN CORPUSCULAR HEMOGLOBIN CONCENTRATION / MEAN CORPUSCULAR VOLUME / MONOCYTE / NEUTROPHIL / NUCLEATED RED BLOOD CELLS / PLATELET COUNT: tissue Blood; for ALANINE AMINOTRANSFERASE / ALBUMIN / ALKALINE PHOSPHATASE / ASPARTATE AMINOTRANSFERASE / BLOOD UREA NITROGEN / CARBON DIOXIDE / CHLORIDE / CHOLESTEROL / CREATINE PHOSPHOKINASE / CREATININE / GLUCOSE / LACTATE DEHYDROGENASE / LIPASE / PHOSPHORUS / POTASSIUM / SODIUM / TOTAL BILIRUBIN / TOTAL PROTEIN / URIC ACID: tissue Plasma
[1] = 0 mg/kg, 72 h, dose level Control, time 3 day
[2] = 0 mg/kg, 120 h, dose level Control, time 5 day
[3] = 10 mg/kg, 72 h, dose level Low, time 3 day

In the case of `CCN(CC)CC#CCOC(=O)C(O)(c1ccccc1)C1CCCCC1` (centres undefined) [OXYBUTYNIN], the “ABSOLUTE BASOPHIL” value [1] is reported as 0 CELLS/uL, the “ABSOLUTE EOSINOPHIL” value [1] is reported as 24 CELLS/uL and the “ABSOLUTE LYMPHOCYTE” value [1] is reported as 13105 CELLS/uL. The “ABSOLUTE MONOCYTE” value [1] was 76 CELLS/uL, the “ABSOLUTE SEGMENTED NEUTROPHIL” value [1] was 2145 CELLS/uL and the BASOPHIL [1] was 0%. For the same molecule, the EOSINOPHIL [1] was 0.17%, the “ERYTHROCYTE COUNT” value [1] was 5.81 x10E6/uL and the HEMATOCRIT [1] was 35.6%. The HEMOGLOBIN [1] was 13.72 G/DL, the “LEUKOCYTE COUNT” value [1] was 15.35 x10E3/uL and the LYMPHOCYTE [1] was 85.5%. For the same molecule, the “MEAN CORPUSCULAR HEMOGLOBIN” value [1] was 23.62 pg, the “MEAN CORPUSCULAR HEMOGLOBIN CONCENTRATION” value [1] was 38.55 G/DL and the “MEAN CORPUSCULAR VOLUME” value [1] was 61.23 fL. For the same molecule, the MONOCYTE [1] was 0.5%, the NEUTROPHIL [1] was 13.83% and the “NUCLEATED RED BLOOD CELLS” value [1] was 0 /100WBC. The “PLATELET COUNT” value [1] was 1189.83 x10E3/uL, the “ALANINE AMINOTRANSFERASE” value [1] was 48.67 u/L and the ALBUMIN [1] was 4.27 G/DL. The “ALKALINE PHOSPHATASE” value [1] was 335 u/L, the “ASPARTATE AMINOTRANSFERASE” value [1] was 86.5 u/L and the “BLOOD UREA NITROGEN” value [1] was 14.33 mg/dL. The “CARBON DIOXIDE” value [1] was 29.17 mmol/L, the CHLORIDE [1] was 99.83 MEQ/L and the CHOLESTEROL [1] was 71.83 mg/dL. The “CREATINE PHOSPHOKINASE” value [1] was 506.83 u/L, the CREATININE [1] was 0.18 mg/dL and the GLUCOSE [1] was 162.17 mg/dL. The “LACTATE DEHYDROGENASE” value [1] was 264.5 u/L, the LIPASE [1] was 9.67 u/L and the PHOSPHORUS [1] was 11.92 mg/dL. For the same molecule, the POTASSIUM [1] was 6.55 MEQ/L, the SODIUM [1] was 141.53 MEQ/L and the “TOTAL BILIRUBIN” value [1] was 0.18 mg/dL. For the same molecule, the “TOTAL PROTEIN” value [1] was 5.87 G/DL, the “URIC ACID” value [1] was 1.67 mg/dL and the “ABSOLUTE BASOPHIL” value [2] was 0 CELLS/uL. For the same molecule, the “ABSOLUTE EOSINOPHIL” value [2] was 25.33 CELLS/uL, the “ABSOLUTE LYMPHOCYTE” value [2] was 15680 CELLS/uL and the “ABSOLUTE MONOCYTE” value [2] was 92.33 CELLS/uL. The “ABSOLUTE SEGMENTED NEUTROPHIL” value [2] was 2102.33 CELLS/uL, the BASOPHIL [2] was 0% and the EOSINOPHIL [2] was 0.17%. For the same molecule, the “ERYTHROCYTE COUNT” value [2] was 6 x10E6/uL, the HEMATOCRIT [2] was 35.55% and the HEMOGLOBIN [2] was 14.12 G/DL. The “LEUKOCYTE COUNT” value [2] was 17.9 x10E3/uL, the LYMPHOCYTE [2] was 87.33% and the “MEAN CORPUSCULAR HEMOGLOBIN” value [2] was 23.65 pg. For the same molecule, the “MEAN CORPUSCULAR HEMOGLOBIN CONCENTRATION” value [2] was 39.77 G/DL, the “MEAN CORPUSCULAR VOLUME” value [2] was 59.52 fL and the MONOCYTE [2] was 0.5%. For the same molecule, the NEUTROPHIL [2] was 12%, the “NUCLEATED RED BLOOD CELLS” value [2] was 0.17 /100WBC and the “PLATELET COUNT” value [2] was 1325.67 x10E3/uL. The “ALANINE AMINOTRANSFERASE” value [2] was 56.17 u/L, the ALBUMIN [2] was 4.23 G/DL and the “ALKALINE PHOSPHATASE” value [2] was 371.5 u/L. The “ASPARTATE AMINOTRANSFERASE” value [2] was 91 u/L, the “BLOOD UREA NITROGEN” value [2] was 15.33 mg/dL and the “CARBON DIOXIDE” value [2] was 27.67 mmol/L. For the same molecule, the CHLORIDE [2] was 99.5 MEQ/L, the CHOLESTEROL [2] was 66.5 mg/dL and the “CREATINE PHOSPHOKINASE” value [2] was 518.5 u/L. For the same molecule, the CREATININE [2] was 0.18 mg/dL, the GLUCOSE [2] was 143.33 mg/dL and the “LACTATE DEHYDROGENASE” value [2] was 238.83 u/L. For the same molecule, the LIPASE [2] was 9.33 u/L, the PHOSPHORUS [2] was 10.68 mg/dL and the POTASSIUM [2] was 6.5 MEQ/L. The SODIUM [2] was 141.88 MEQ/L, the “TOTAL BILIRUBIN” value [2] was 0.18 mg/dL and the “TOTAL PROTEIN” value [2] was 6 G/DL. For the same molecule, the “URIC ACID” value [2] was 1.63 mg/dL, the “ABSOLUTE BASOPHIL” value [3] was 0 CELLS/uL and the “ABSOLUTE EOSINOPHIL” value [3] was 0 CELLS/uL. The “ABSOLUTE LYMPHOCYTE” value [3] was 11373.67 CELLS/uL, the “ABSOLUTE MONOCYTE” value [3] was 168.67 CELLS/uL and the “ABSOLUTE SEGMENTED NEUTROPHIL” value [3] was 2324.33 CELLS/uL. For the same molecule, the BASOPHIL [3] was 0%, the EOSINOPHIL [3] was 0% and the “ERYTHROCYTE COUNT” value [3] was 5.85 x10E6/uL. The HEMATOCRIT [3] was 35.5%, the HEMOGLOBIN [3] was 13.87 G/DL and the “LEUKOCYTE COUNT” value [3] was 13.87 x10E3/uL. For the same molecule, the LYMPHOCYTE [3] was 82.33%, the “MEAN CORPUSCULAR HEMOGLOBIN” value [3] was 23.77 pg and the “MEAN CORPUSCULAR HEMOGLOBIN CONCENTRATION” value [3] was 39.1 G/DL. The “MEAN CORPUSCULAR VOLUME” value [3] was 60.83 fL, the MONOCYTE [3] was 1.33% and the NEUTROPHIL [3] was 16.33%. The “NUCLEATED RED BLOOD CELLS” value [3] was 0 /100WBC, the “PLATELET COUNT” value [3] was 1157.33 x10E3/uL and the “ALANINE AMINOTRANSFERASE” value [3] was 50 u/L. The ALBUMIN [3] was 4.03 G/DL, the “ALKALINE PHOSPHATASE” value [3] was 314.33 u/L and the “ASPARTATE AMINOTRANSFERASE” value [3] was 86 u/L. For the same molecule, the “BLOOD UREA NITROGEN” value [3] was 13.67 mg/dL, the “CARBON DIOXIDE” value [3] was 28.33 mmol/L and the CHLORIDE [3] was 99.33 MEQ/L. The CHOLESTEROL [3] was 57.67 mg/dL, the “CREATINE PHOSPHOKINASE” value [3] was 426.33 u/L and the CREATININE [3] was 0.12 mg/dL. The GLUCOSE [3] was 150.67 mg/dL, the “LACTATE DEHYDROGENASE” value [3] was 120 u/L and the LIPASE [3] was 9 u/L. The PHOSPHORUS [3] was 12.43 mg/dL, the POTASSIUM [3] was 6.97 MEQ/L and the SODIUM [3] was 141.47 MEQ/L. The “TOTAL BILIRUBIN” value [3] was 0.17 mg/dL, the “TOTAL PROTEIN” value [3] was 5.57 G/DL and the “URIC ACID” value [3] was 1.97 mg/dL.
